Data: ChEMBL document CHEMBL3872232, “2-Azetidinones: Synthesis and biological evaluation as potential anti-breast cancer agents” (Eur J Med Chem, 2016)
The source made the active and inactive calls. No cut-off for these calls is given here.

Legend:
MDA-MB-231 [1] = test: Effect on Cdk2 mRNA expression in human MDA-MB-231 cells assessed as ratio of Cdk2 to GAPDH expression level at 5 uM after 24 hrs by RT-PCR method (reference value: 0.26); type: functional
[2] = Cell cycle arrest in human MCF7 cells assessed as accumulation at G0/G1 phase at 5 uM after 24 hrs by propidium iodide staining based flow cytometry (reference value: 83.25%); type: functional
MDA-MB-231 [3] = test: Effect on p53 gene expression in human MDA-MB-231 cells assessed as ratio of p53 to beta-actin expression level at 5 uM after 24 hrs by RT-PCR method (reference value: 0.22); type: functional
MDA-MB-231 [4] = test: Effect on Bid gene expression in human MDA-MB-231 cells assessed as ratio of Bid to beta-actin expression level at 5 uM after 24 hrs by RT-PCR method (reference value: 0.17); type: functional
[5] = Antiproliferative activity against human mammary epithelial cells after 48 hrs by MTT assay; type: cell-based, Epithelial cell; conditions: Homo sapiens, Epithelial cell, 48 h; read-out: IC50
MDA-MB-231 [6] = test: Effect on p27 mRNA expression in human MDA-MB-231 cells assessed as ratio of p27 to GAPDH expression level at 5 uM after 24 hrs by RT-PCR method (reference value: 0.23); type: functional
[7] = Cell cycle arrest in human MDA-MB-231 cells assessed as increase in cell accumulation at G2/M phase at 5 uM after 24 hrs by propidium iodide staining based flow cytometry; type: functional
MCF7 [8] = test: Induction of apoptosis in human MCF7 cells assessed as necrotic cells at 5 uM after 24 hrs by Annexin V-FITC/propidium iodide staining based flow cytometry (reference value: 3.7%); type: functional
MDA-MB-231 [9] = test: Induction of apoptosis in human MDA-MB-231 cells assessed as late apoptotic cells at 5 uM after 24 hrs by Annexin V-FITC/propidium iodide staining based flow cytometry (reference value: 1.8%); type: functional
[10] = Cell cycle arrest in human MCF7 cells assessed as accumulation at sub-G1 phase at 5 uM after 24 hrs by propidium iodide staining based flow cytometry (reference value: 3.58%); type: functional
MDA-MB-231 [11] = test: Effect on cyclin D1 mRNA expression in human MDA-MB-231 cells assessed as ratio of cyclin D1 to GAPDH expression level at 5 uM after 24 hrs by RT-PCR method (reference value: 0.71); type: functional
MCF7 [12] = test: Induction of apoptosis in human MCF7 cells assessed as early apoptotic cells at 5 uM after 24 hrs by Annexin V-FITC/propidium iodide staining based flow cytometry (reference value: 1.6%); type: functional
Homo sapiens [13] = species: Homo sapiens; test: Inhibition of Akt in human MDA-MB-231 cells assessed as ratio of phosphorylated Akt to GAPDH expression level at 5 uM after 48 hrs by immunoblot analysis (reference value: 0.33 to 0.81); type: cell-based
MDA-MB-231 [14] = test: Induction of apoptosis in human MDA-MB-231 cells assessed as early apoptotic cells at 5 uM after 24 hrs by Annexin V-FITC/propidium iodide staining based flow cytometry (reference value: 0.5%); type: functional
MDA-MB-231 [15] = test: Ratio of Bcl-2 to Bax gene expression in human MDA-MB-231 cells at 5 uM after 24 hrs by RT-PCR method (reference value: 0.03); type: functional
Homo sapiens [16] = species: Homo sapiens; test: Inhibition of Akt in human MDA-MB-231 cells assessed as ratio of phosphorylated GSK-3beta to GAPDH expression level at 5 uM after 48 hrs by immunoblot analysis (reference value: 0.14 to 1.50); type: cell-based
MCF7 [17] = test: Induction of apoptosis in human MCF7 cells assessed as late apoptotic cells at 5 uM after 24 hrs by Annexin V-FITC/propidium iodide staining based flow cytometry (reference value: 2.3%); type: functional
[18] = Cell cycle arrest in human MCF7 cells assessed as accumulation at S phase at 5 uM after 24 hrs by propidium iodide staining based flow cytometry (reference value: 4.23%); type: functional
[19] = Cell cycle arrest in human MCF7 cells assessed as accumulation at G2/M phase at 5 uM after 24 hrs by propidium iodide staining based flow cytometry (reference value: 9.29%); type: functional
MDA-MB-231 [20] = test: Effect on p21 mRNA expression in human MDA-MB-231 cells assessed as ratio of p21 to GAPDH expression level at 5 uM after 24 hrs by RT-PCR method (reference value: 0.02); type: functional
MDA-MB-231 [21] = test: Effect on Cdk6 mRNA expression in human MDA-MB-231 cells assessed as ratio of Cdk6 to GAPDH expression level at 5 uM after 24 hrs by RT-PCR method (reference value: 1.37); type: functional
[22] = Antiproliferative activity against human MDA-MB-231 cells after 48 hrs by MTT assay; type: functional, cell-based; conditions: MDA-MB-231, 48 h
MDA-MB-231 [23] = test: Effect on cyclin E mRNA expression in human MDA-MB-231 cells assessed as ratio of cyclin E to GAPDH expression level at 5 uM after 24 hrs by RT-PCR method (reference value: 0.13); type: functional
MDA-MB-231 [24] = test: Induction of apoptosis in human MDA-MB-231 cells assessed as necrotic cells at 5 uM after 24 hrs by Annexin V-FITC/propidium iodide staining based flow cytometry (reference value: 1.3%); type: functional
[25] = Antiproliferative activity against human MCF7 cells after 48 hrs by MTT assay; type: functional, cell-based; conditions: MCF7, 48 h
Homo sapiens [26] = species: Homo sapiens; test: Inhibition of Akt in human MDA-MB-231 cells assessed as ratio of phosphorylated GSK-3beta to GAPDH expression level at 10 uM after 48 hrs by immunoblot analysis (reference value: 0.14 to 1.50); type: cell-based
Homo sapiens [27] = species: Homo sapiens; test: Inhibition of Akt in human MDA-MB-231 cells assessed as ratio of phosphorylated Akt to GAPDH expression level at 10 uM after 48 hrs by immunoblot analysis (reference value: 0.33 to 0.81); type: cell-based
MCF7 [28] = test: Inhibition of Akt in human MCF7 cells assessed as GSK-3beta phosphorylation reduction in after 48 hrs by immunoblot analysis; type: cell-based
MDA-MB-231 [29] = test: Inhibition of Akt in human MDA-MB-231 cells assessed as reduction in GSK-3beta phosphorylation after 48 hrs by immunoblot analysis; type: cell-based
MCF7 [30] = test: Inhibition of Akt phosphorylation in human MCF7 cells after 48 hrs by immunoblot analysis; type: cell-based
MDA-MB-231 [31] = test: Inhibition of Akt phosphorylation in human MDA-MB-231 cells after 48 hrs by immunoblot analysis; type: cell-based
[32] = Safety index, ratio of compound IC50 to colchicine IC50 for human mammary epithelial cells; type: ADME, cell-based, Epithelial cell; conditions: read-out: Ratio IC50
Homo sapiens [33] = species: Homo sapiens; test: Inhibition of Akt in human MDA-MB-231 cells assessed as ratio of phosphorylated GSK-3beta to GAPDH expression level at 2 uM after 48 hrs by immunoblot analysis (reference value: 0.14 to 1.50); type: cell-based
MDA-MB-231 [34] = test: Inhibition of Akt in human MDA-MB-231 cells after 48 hrs by ELISA; type: cell-based
[35] = Cell cycle arrest in human MDA-MB-231 cells assessed as increase in cell accumulation at sub-G1 phase at 5 uM after 24 hrs by propidium iodide staining based flow cytometry; type: functional
Homo sapiens [36] = species: Homo sapiens; test: Inhibition of Akt in human MDA-MB-231 cells assessed as ratio of phosphorylated Akt to GAPDH expression level at 2 uM after 48 hrs by immunoblot analysis (reference value: 0.33 to 0.81); type: cell-based
MCF7 [37] = test: Induction of apoptosis in human MCF7 cells assessed as increase in necrotic cells at 5 uM after 24 hrs by Annexin V-FITC/propidium iodide staining based flow cytometry relative to colchicine; type: functional

Row | Structure (SMILES) | Ratio (MDA-MB-231 [1]) | Activity [2] [%] | Ratio (MDA-MB-231 [3]) | Ratio (MDA-MB-231 [4]) | IC50 [5] [µM] | Ratio (MDA-MB-231 [6]) | Activity (MCF7 [8]) [%] | Activity (MDA-MB-231 [9]) [%] | Activity [10] [%] | Ratio (MDA-MB-231 [11]) | Activity (MCF7 [12]) [%] | Ratio (Homo sapiens [13]) | Activity (MDA-MB-231 [14]) [%] | Ratio (MDA-MB-231 [15]) | Ratio (Homo sapiens [16]) | Activity (MCF7 [17]) [%] | Activity [18] [%] | Activity [19] [%] | Ratio (MDA-MB-231 [20]) | Ratio (MDA-MB-231 [21]) | further results
1 | COc1cc2c(c(OC)c1OC)-c1ccc(OC)c(=O)cc1[C@@H](NC(C)=O)CC2 [COLCHICINE] | 0.39 | 66.2 | 0.3 | 0.42 | 9.26 | 0.6 | 6.5 | 5.8 | 7.4 | 1.5 | 1 | 0.23 to 0.44 | 2.3 | 0.1 | 0.12 to 1.45 | 1.8 | 10.3 | 16.2 | 0.6 | 1.56 | Activity [7]: Active; IC50 [22]: 3.55 µM; Ratio (MDA-MB-231 [23]): 0.19; Activity (MDA-MB-231 [24]): 0.9%; IC50 [25]: 0.072 µM
2 | CCOC(=O)/C(=C/c1ccccc1)CN1C(=O)[C@@H](OC)[C@H]1c1ccccc1Br | 0.18 | 71.2 | 0.25 | 0.56 | 66.6 | 0.41 | 13.1 | 5.4 | 12.9 | 0.47 | 4 | 0.03 | 2.2 | 0.01 | 0.61 | 6.7 | 5.17 | 9.11 | 0.03 | 0.19 | Ratio (Homo sapiens [26]): 0.58; Ratio (Homo sapiens [27]): 0.01; inhibition (MCF7 [28]): Dose-dependent effect; inhibition (MDA-MB-231 [29]): Dose-dependent effect; inhibition (MCF7 [30]): Dose-dependent effect; inhibition (MDA-MB-231 [31]): Dose-dependent effect; selectivity ratio [32]: 10; Ratio (Homo sapiens [33]): 1.16; inhibition (MDA-MB-231 [34]): Dose-dependent effect; Activity [35]: Active; Ratio (Homo sapiens [36]): 0.16; fold change (FC) (MCF7 [37]): 2; IC50 [22]: 6.86 µM; Ratio (MDA-MB-231 [23]): 0.03; Activity (MDA-MB-231 [24]): 0.9%; IC50 [25]: 5.79 µM
